According to patent US6914045B2, “Glycopeptide antibiotics” (Wyeth Holdings Corporation, priority 2001, dated 2005):
Converted amounts (≈) assume the structure as drawn. Each block holds one molecule with its values, some of them ahead of it.

Key:
Assay in all cases: in vitro antibacterial evaluation, MIC by broth dilution
Assay type in all cases: cell-based
[1] = system: Enterococcus sp.; details: broth dilution, 18 hours at 35° C.
How it was run: (§1)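 Broth dilution per NCCLS M7-A2 in Mueller-Hinton II medium, inoculum 5×10^5 CFU/mL, antibiotic range 64-0.06 μg/mL. MIC taken as lowest concentration inhibiting growth; Gram-positive panel includes recent clinical isolates resistant to methicillin, penicillin and/or vancomycin.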

[2] = system: Staphylococcus sp.; details: broth dilution, 18 hours at 35° C.; for MIC Staphylococcus aureus (GC 1131): strain GC 1131; for MIC Staphylococcus aureus (ATCC 29213): strain ATCC 29213; for MIC Staphylococcus aureus (GC 3051): strain GC 3051; for MIC Staphylococcus aureus (GC 3053): strain GC 3053; for MIC Staphylococcus aureus (GC 4541): strain GC 4541; for MIC Staphylococcus aureus (GC 4542): strain GC 4542; for MIC Staphylococcus aureus-SMITH (GC 4543): strain GC 4543; for MIC Staphylococcus aureus (GC 4544): strain GC 4544; for MIC Staphylococcus aureus (GC 4545): strain GC 4545; for MIC Staphylococcus haemolyticus (GC 4546): strain GC 4546; for MIC Coagulase Negative Staphylococcus (GC 4547): strain GC 4547; for MIC Coagulase Negative Staphylococcus (GC 4548): strain GC 4548; for MIC Coagulase Negative Staphylococcus (GC 4549): strain GC 4549; for MIC Coagulase Negative Staphylococcus (GC 4551): strain GC 4551; for MIC Coagulase Negative Staphylococcus (GC 6257): strain GC 6257
How it was run: as §1

[3] = system: Streptococcus sp.; details: broth dilution, 18 hours at 35° C.
How it was run: as §1

[4] = system: Escherichia coli; details: 18 hours at 35° C.

- MIC Enterococcus avium (GC 4558) [1]: 2 µg/mL (≈ 1.42 µM)
- MIC Enterococcus faecalis (ATCC 29212) [1]: 2 µg/mL (≈ 1.42 µM)
- MIC Enterococcus faecalis (GC 2242) [1]: 1 µg/mL (≈ 0.708 µM)
- MIC Enterococcus faecalis (GC 2691) [1]: 2 µg/mL (≈ 1.42 µM)
- MIC Enterococcus faecalis (GC 3059) [1]: 1 µg/mL (≈ 0.708 µM)
- MIC Enterococcus faecalis (GC 4552) [1]: 1 µg/mL (≈ 0.708 µM)
- MIC Enterococcus faecalis (GC 4553) [1]: 2 µg/mL (≈ 1.42 µM)
- MIC Enterococcus faecalis (GC 4554) [1]: 1 µg/mL (≈ 0.708 µM)
- MIC Enterococcus faecalis (GC 6189) [1]: 0.5 µg/mL (≈ 0.354 µM)
- MIC Enterococcus faecium (GC 2243) [1]: 1 µg/mL (≈ 0.708 µM)
- MIC Enterococcus faecium (GC 4556) [1]: 1 µg/mL (≈ 0.708 µM)
- MIC Enterococcus faecium (GC 4557) [1]: 2 µg/mL (≈ 1.42 µM)
- MIC Enterococcus faecalis (ATCC 29212) ([1]; inoculum 5×10^5 CFU/mL, strain ATCC 29212): 2 µg/mL (≈ 1.42 µM)
- MIC Enterococcus faecalis (GC 2242) ([1]; inoculum 5×10^5 CFU/mL, strain GC 2242): 1 µg/mL (≈ 0.708 µM)
- MIC Enterococcus faecium (GC 2243) ([1]; inoculum 5×10^5 CFU/mL, strain GC 2243): 1 µg/mL (≈ 0.708 µM)
- MIC Enterococcus faecalis (GC 2691) ([1]; inoculum 5×10^5 CFU/mL, strain GC 2691): 2 µg/mL (≈ 1.42 µM)
- MIC Enterococcus faecalis (GC 3059) ([1]; inoculum 5×10^5 CFU/mL, strain GC 3059): 1 µg/mL (≈ 0.708 µM)
- MIC Enterococcus faecalis (GC 4552) ([1]; inoculum 5×10^5 CFU/mL, strain GC 4552): 1 µg/mL (≈ 0.708 µM)
- MIC Enterococcus faecalis (GC 4553) ([1]; inoculum 5×10^5 CFU/mL, strain GC 4553): 2 µg/mL (≈ 1.42 µM)
- MIC Enterococcus faecalis (GC 4554) ([1]; inoculum 5×10^5 CFU/mL, strain GC 4554): 1 µg/mL (≈ 0.708 µM)
- MIC Enterococcus faecium (GC 4556) ([1]; inoculum 5×10^5 CFU/mL, strain GC 4556): 1 µg/mL (≈ 0.708 µM)
- MIC Enterococcus faecium (GC 4557) ([1]; inoculum 5×10^5 CFU/mL, strain GC 4557): 2 µg/mL (≈ 1.42 µM)
- MIC Enterococcus avium (GC 4558) ([1]; inoculum 5×10^5 CFU/mL, strain GC 4558): 2 µg/mL (≈ 1.42 µM)
- MIC Enterococcus faecalis (GC 6189) ([1]; inoculum 5×10^5 CFU/mL, strain GC 6189): 0.5 µg/mL (≈ 0.354 µM)
- MIC Staphylococcus aureus (GC 1131) ([2]; inoculum 5×10^5 CFU/mL): 1 µg/mL (≈ 0.708 µM)
- MIC Staphylococcus aureus (ATCC 29213) [2]: 0.5 µg/mL (≈ 0.354 µM)
- MIC Staphylococcus aureus (GC 1131) [2]: 1 µg/mL (≈ 0.708 µM)
- MIC Staphylococcus aureus (GC 3051) [2]: 1 µg/mL (≈ 0.708 µM)
- MIC Staphylococcus aureus (GC 3053) [2]: 1 µg/mL (≈ 0.708 µM)
- MIC Staphylococcus aureus (GC 4541) [2]: 0.5 µg/mL (≈ 0.354 µM)
- MIC Staphylococcus aureus (GC 4542) [2]: 0.5 µg/mL (≈ 0.354 µM)
- MIC Staphylococcus aureus-SMITH (GC 4543) [2]: 0.5 µg/mL (≈ 0.354 µM)
- MIC Staphylococcus aureus (GC 4544) [2]: 2 µg/mL (≈ 1.42 µM)
- MIC Staphylococcus aureus (GC 4545) [2]: 1 µg/mL (≈ 0.708 µM)
- MIC Coagulase Negative Staphylococcus (GC 4547) [2]: 1 µg/mL (≈ 0.708 µM)
- MIC Coagulase Negative Staphylococcus (GC 4548) [2]: 0.5 µg/mL (≈ 0.354 µM)
- MIC Coagulase Negative Staphylococcus (GC 4549) [2]: 0.5 µg/mL (≈ 0.354 µM)
- MIC Coagulase Negative Staphylococcus (GC 4551) [2]: 1 µg/mL (≈ 0.708 µM)
- MIC Coagulase Negative Staphylococcus (GC 6257) [2]: 0.5 µg/mL (≈ 0.354 µM)
- MIC Streptococcus agalactiae (GC 4564) [3]: <0.06 µg/mL
- MIC Streptococcus pneumoniae (ATCC 6301) [3]: 0.25 µg/mL (≈ 0.177 µM)
- MIC Streptococcus pneumoniae (GC 1894) [3]: 0.12 µg/mL (≈ 0.085 µM)
- MIC Streptococcus pneumoniae (GC 4565) [3]: <0.06 µg/mL
- MIC Streptococcus pyogenes (GC 4563) [3]: <0.06 µg/mL
- MIC Streptococcus pneumoniae (ATCC 6301) ([3]; inoculum 5×10^5 CFU/mL, strain ATCC 6301): 0.25 µg/mL (≈ 0.177 µM)
- MIC Streptococcus pneumoniae (GC 1894) ([3]; inoculum 5×10^5 CFU/mL, strain GC 1894): 0.12 µg/mL (≈ 0.085 µM)
- MIC Streptococcus pyogenes (GC 4563) ([3]; inoculum 5×10^5 CFU/mL, strain GC 4563): <0.06 µg/mL
- MIC Streptococcus agalactiae (GC 4564) ([3]; inoculum 5×10^5 CFU/mL, strain GC 4564): <0.06 µg/mL
- MIC Streptococcus pneumoniae (GC 4565) ([3]; inoculum 5×10^5 CFU/mL, strain GC 4565): <0.06 µg/mL
- MIC Escherichia coli (GC 4559) [4]: 32 µg/mL (≈ 22.7 µM)
- MIC Escherichia coli (GC 4560) [4]: 2 µg/mL (≈ 1.42 µM)
Structure (SMILES): CCCC(C)C1OCC2OC(OC3C(CO)OC(Oc4ccc(CC5NC(=O)C(C(C)c6ccc(Cl)cc6)NC(=O)CNC(=O)C(CO)NC(=O)C(C(O)C6CNC(=N)N6C6OC(CO)C(O)C(O)C6O)NC(=O)C(C(O)C6CNC(=N)N6)NC5=O)cc4)C(O)C3O)C(O)C(O)C2O1 (stereo not drawn) [Example 194]
- MIC Staphylococcus haemolyticus (GC 4546) [2]: 0.5 µg/mL (≈ 0.354 µM)

- MIC Enterococcus faecalis (ATCC 29212) ([1]; strain ATCC 29212): 8 µg/mL (≈ 7.09 µM)
- MIC Enterococcus faecalis (GC 2242) ([1]; strain GC 2242): 4 µg/mL (≈ 3.55 µM)
- MIC Enterococcus faecium (GC 2243) ([1]; strain GC 2243): 4 µg/mL (≈ 3.55 µM)
- MIC Enterococcus faecalis (GC 2691) ([1]; strain GC 2691): 8 µg/mL (≈ 7.09 µM)
- MIC Enterococcus faecalis (GC 3059) ([1]; strain GC 3059): 8 µg/mL (≈ 7.09 µM)
- MIC Enterococcus faecalis (GC 4552) ([1]; strain GC 4552): 8 µg/mL (≈ 7.09 µM)
- MIC Enterococcus faecalis (GC 4553) ([1]; strain GC 4553): 8 µg/mL (≈ 7.09 µM)
- MIC Enterococcus faecalis (GC 4554) ([1]; strain GC 4554): 4 µg/mL (≈ 3.55 µM)
- MIC Enterococcus faecium (GC 4556) ([1]; strain GC 4556): 8 µg/mL (≈ 7.09 µM)
- MIC Enterococcus faecium (GC 4557) ([1]; strain GC 4557): 2 µg/mL (≈ 1.77 µM)
- MIC Enterococcus avium (GC 4558) ([1]; strain GC 4558): 4 µg/mL (≈ 3.55 µM)
- MIC Enterococcus faecalis (GC 6189) ([1]; strain GC 6189): 4 µg/mL (≈ 3.55 µM)
- MIC Staphylococcus aureus (ATCC 29213) [2]: 4 µg/mL (≈ 3.55 µM)
- MIC Staphylococcus aureus (GC 1131) [2]: 2 µg/mL (≈ 1.77 µM)
- MIC Staphylococcus aureus (GC 3051) [2]: 2 µg/mL (≈ 1.77 µM)
- MIC Staphylococcus aureus (GC 3053) [2]: 4 µg/mL (≈ 3.55 µM)
- MIC Staphylococcus aureus (GC 4541) [2]: 2 µg/mL (≈ 1.77 µM)
- MIC Staphylococcus aureus (GC 4542) [2]: 2 µg/mL (≈ 1.77 µM)
- MIC Staphylococcus aureus-SMITH (GC 4543) [2]: 2 µg/mL (≈ 1.77 µM)
- MIC Staphylococcus aureus (GC 4544) [2]: 2 µg/mL (≈ 1.77 µM)
- MIC Staphylococcus aureus (GC 4545) [2]: 2 µg/mL (≈ 1.77 µM)
- MIC Coagulase Negative Staphylococcus (GC 4547) [2]: 2 µg/mL (≈ 1.77 µM)
- MIC Coagulase Negative Staphylococcus (GC 4548) [2]: 1 µg/mL (≈ 0.886 µM)
- MIC Coagulase Negative Staphylococcus (GC 4549) [2]: 2 µg/mL (≈ 1.77 µM)
- MIC Coagulase Negative Staphylococcus (GC 4551) [2]: 4 µg/mL (≈ 3.55 µM)
- MIC Coagulase Negative Staphylococcus (GC 6257) [2]: 2 µg/mL (≈ 1.77 µM)
- MIC Streptococcus pneumoniae (ATCC 6301) ([3]; strain ATCC 6301): 16 µg/mL (≈ 14.2 µM)
- MIC Streptococcus pneumoniae (GC 1894) ([3]; strain GC 1894): 16 µg/mL (≈ 14.2 µM)
- MIC Streptococcus pyogenes (GC 4563) ([3]; strain GC 4563): 8 µg/mL (≈ 7.09 µM)
- MIC Streptococcus agalactiae (GC 4564) ([3]; strain GC 4564): 16 µg/mL (≈ 14.2 µM)
- MIC Streptococcus pneumoniae (GC 4565) ([3]; strain GC 4565): 16 µg/mL (≈ 14.2 µM)
- MIC Escherichia coli (ATCC 25922) ([4]; strain ATCC 25922, broth dilution): 16 µg/mL (≈ 14.2 µM)
- MIC Escherichia coli (GC 4559) ([4]; strain GC 4559, broth dilution): 16 µg/mL (≈ 14.2 µM)
- MIC Escherichia coli (GC 4560) ([4]; strain GC 4560, broth dilution): 4 µg/mL (≈ 3.55 µM)
Structure (SMILES): CC(c1ccccc1)C1NC(=O)CNC(=O)C(CO)NC(=O)C(C(O)C2CNC(=N)N2C2OC(CO)C(O)C(O)C2O)NC(=O)C(C(O)C2CNC(=N)N2)NC(=O)C(Cc2ccc3oc(-c4ccc(C(C)(C)C)cc4)nc3c2)NC1=O (stereo not drawn) [Example 32, Cyclo[3-[2-(4-tert-butylphenyl)-1,3-benzoxazol-5-yl]alanyl-3-(2-iminoimidazolidin-4-yl)seryl-3-(3-hexopyranosyl-2-iminoimidazolidin-4-yl)serylserylglycyl-β-methylphenylalanyl]]
- MIC Staphylococcus haemolyticus (GC 4546) [2]: 2 µg/mL (≈ 1.77 µM)
